# Assays:
# Mus musculus [1] = experiment: Antirheumatic effect was determined in mice after combined treatment of TAS-202 (30 mg/kg/day) and indomethacin (1 mg/kg/day) at day 14; assay type: functional
# Mus musculus [2] = experiment: Antirheumatic effect was determined in mice after oral administration of a dose of 1 mg/kg/day at day 14; assay type: functional; settings: 336 h
# HUVEC [3] = experiment: Anti-proliferative effect on human umbilical vein endothelial cells (HUVEC) induced by basic fibroblast growth factor (bFGF); assay type: functional, cell-based
# HUVEC [4] = experiment: Anti-proliferative effect on human umbilical vein endothelial cells (HUVEC) induced by endothelial cell growth supplement (ECGS); assay type: functional, cell-based
# HUVEC [5] = experiment: Anti-proliferative effect on HUVEC induced by vascular endothelial growth factor (VEGF)at 0.1 uM concentration by measuring [3H]thymidine incorporation; assay type: functional, Homo sapiens
# HUVEC [6] = experiment: Anti-proliferative effect on HUVEC induced by basic fibroblast growth factor (bFGF)at 1 uM concentration by measuring [3H]thymidine incorporation; assay type: functional, Homo sapiens
# HUVEC [7] = experiment: Anti-proliferative effect on HUVEC induced by fetal bovine serum (FBS) at 0 uM concentration by measuring [3H]thymidine incorporation; assay type: functional, Homo sapiens
# HUVEC [8] = experiment: Anti-proliferative effect on HUVEC induced by fetal bovine serum (FBS) at 0.1 uM concentration by measuring [3H]thymidine incorporation; assay type: functional, Homo sapiens
# HUVEC [9] = experiment: Anti-proliferative effect on HUVEC induced by fetal bovine serum (FBS) at 0.3 uM concentration by measuring [3H]thymidine incorporation; assay type: functional, Homo sapiens
# HUVEC [10] = experiment: Anti-proliferative effect on HUVEC induced by fetal bovine serum (FBS) at 1 uM concentration by measuring [3H]-thymidine incorporation; assay type: functional, Homo sapiens
# HUVEC [11] = experiment: Anti-proliferative effect on HUVEC induced by vascular endothelial growth factor (VEGF)at 0.3 uM concentration by measuring [3H]thymidine incorporation; assay type: functional, Homo sapiens
# HUVEC [12] = experiment: Anti-proliferative effect on HUVEC induced by vascular endothelial growth factor (VEGF)at 0 uM concentration by measuring [3H]thymidine incorporation; assay type: functional, Homo sapiens
# HUVEC [13] = experiment: Anti-proliferative effect on HUVEC induced by vascular endothelial growth factor (VEGF)at 1 uM concentration by measuring [3H]thymidine incorporation; assay type: functional, Homo sapiens
# HUVEC [14] = experiment: Anti-proliferative effect on human umbilical vein endothelial cells (HUVEC) induced by ECGS at 0 uM concentration by measuring [3H]thymidine incorporation; assay type: functional
# HUVEC [15] = experiment: Anti-proliferative effect on human umbilical vein endothelial cells (HUVEC) induced by ECGS at 0.1 uM concentration by measuring [3H]thymidine incorporation; assay type: functional
# HUVEC [16] = experiment: Anti-proliferative effect on human umbilical vein endothelial cells (HUVEC) induced by ECGS at 0.3 uM concentration by measuring [3H]thymidine incorporation; assay type: functional
# HUVEC [17] = experiment: Anti-proliferative effect on human umbilical vein endothelial cells (HUVEC) induced by ECGS at 1 uM concentration by measuring [3H]thymidine incorporation; assay type: functional
# HUVEC [18] = experiment: Anti-proliferative effect on human umbilical vein endothelial cells (HUVEC) induced by fetal bovine serum (FBS); assay type: functional, cell-based
# HUVEC [19] = experiment: Anti-proliferative effect on human umbilical vein endothelial cells (HUVEC) induced by vascular endothelial growth factor (VEGF); assay type: functional, cell-based
# HUVEC [20] = experiment: Anti-proliferative effect on human umbilical vein endothelial cells (HUVEC) induced by basic fibroblast growth factor (bFGF) at 0.1 (uM) concentration; assay type: functional
# HUVEC [21] = experiment: Anti-proliferative effect on human umbilical vein endothelial cells (HUVEC) induced by basic fibroblast growth factor (bFGF) at 0.3 (uM) concentration; assay type: functional
# HUVEC [22] = experiment: Anti-proliferative effect on human umbilical vein endothelial cells (HUVEC) induced by basic fibroblast growth factor (bFGF) at 1 (uM) concentration; assay type: functional
# HUVEC [23] = experiment: Anti-proliferative effect on human umbilical vein endothelial cells (HUVEC) induced by endothelial cell growth supplement (ECGS) at 0.3 (uM) concentration; assay type: functional
# HUVEC [24] = experiment: Anti-proliferative effect on human umbilical vein endothelial cells (HUVEC) induced by endothelial cell growth supplement (ECGS) at 1 (uM) concentration; assay type: functional
# HUVEC [25] = experiment: Anti-proliferative effect on human umbilical vein endothelial cells (HUVEC) induced by fetal bovine serum (FBS) at 0.1 (uM) concentration; assay type: functional
# HUVEC [26] = experiment: Anti-proliferative effect on human umbilical vein endothelial cells (HUVEC) induced by fetal bovine serum (FBS) at 1 uM concentration; assay type: functional
# HUVEC [27] = experiment: Anti-proliferative effect on human umbilical vein endothelial cells (HUVEC) induced by vascular endothelial growth factor (VEGF) at 0.1 (uM) concentration; assay type: functional
# HUVEC [28] = experiment: Anti-proliferative effect on human umbilical vein endothelial cells (HUVEC) induced by vascular endothelial growth factor (VEGF) at 0.3 (uM) concentration; assay type: functional
# HUVEC [29] = experiment: Anti-proliferative effect on human umbilical vein endothelial cells (HUVEC) induced by vascular endothelial growth factor (VEGF) at 1 (uM) concentration; assay type: functional
# HUVEC [30] = experiment: Anti-proliferative effect on HUVEC induced by basic fibroblast growth factor (bFGF)at 0 uM concentration by measuring [3H]thymidine incorporation; assay type: functional, Homo sapiens
# HUVEC [31] = experiment: Anti-proliferative effect on HUVEC induced by basic fibroblast growth factor (bFGF)at 0.1 uM concentration by measuring [3H]thymidine incorporation; assay type: functional, Homo sapiens
# HUVEC [32] = experiment: Anti-proliferative effect on HUVEC induced by basic fibroblast growth factor (bFGF)at 0.3 uM concentration by measuring [3H]thymidine incorporation; assay type: functional, Homo sapiens
# [33] = Anti-proliferative activity of KB cells from head and neck cancer cell line induced by fetal bovine serum (FBS) at 0.3 (uM) concentrations for [3H]- thymidine incorporation; assay type: functional, Homo sapiens, Cancer cell lines
# [34] = Anti-proliferative activity of KB cells from head and neck cancer cell line induced by fetal bovine serum (FBS) at 1 (uM) concentrations for [3H]- thymidine incorporation; assay type: functional, Homo sapiens, Cancer cell lines
# [35] = Anti-proliferative activity of KB cells from head and neck cancer cell line induced by fetal bovine serum (FBS) at 0 uM concentrations for [3H]thymidine incorporation; assay type: functional, Homo sapiens, Cancer cell lines
# [36] = Anti-proliferative activity of KB cells from head and neck cancer cell line induced by fetal bovine serum (FBS) at 0.1 (uM) concentrations for [3H]- thymidine incorporation; assay type: functional, Homo sapiens, Cancer cell lines
# [37] = Anti-proliferative activity of KB cells from head and neck cancer cell line induced by fetal bovine serum (FBS) at 0.1 (uM) concentrations for % inhibition; assay type: functional, Homo sapiens, Cancer cell lines
# [38] = Anti-proliferative activity of KB cells from head and neck cancer cell line induced by fetal bovine serum (FBS) at 0.3 (uM) concentrations for % inhibition; assay type: functional, Homo sapiens, Cancer cell lines
# [39] = Anti-proliferative activity of KB cells from head and neck cancer cell line induced by fetal bovine serum (FBS) at 1 (uM) concentration for % inhibition; assay type: functional, Homo sapiens, Cancer cell lines
# Mus musculus [40] = experiment: Antirheumatic effect was determined in mice after oral administration of a dose of 30 mg/kg/day at day 14; assay type: functional; settings: 336 h
# Homo sapiens [41] = organism: Homo sapiens; experiment: Anti-proliferative activity on NHDF induced by fetal bovine serum (FBS) at 0 uM concentration by measuring [3H]thymidine incorporation; assay type: functional
# Homo sapiens [42] = organism: Homo sapiens; experiment: Anti-proliferative activity on NHDF induced by fetal bovine serum (FBS) at 0.1 uM concentration by measuring [3H]thymidine incorporation; assay type: functional
# Homo sapiens [43] = organism: Homo sapiens; experiment: Anti-proliferative activity on NHDF induced by fetal bovine serum (FBS) at 0.3 uM concentration by measuring [3H]thymidine incorporation; assay type: functional
# Homo sapiens [44] = organism: Homo sapiens; experiment: Anti-proliferative activity on NHDF induced by fetal bovine serum (FBS) at 1 uM concentration by measuring [3H]thymidine incorporation; assay type: functional
# Homo sapiens [45] = organism: Homo sapiens; experiment: Anti-proliferative activity of normal human dermal fibroblasts (NHDF) induced by fetal bovine serum (FBS) at 0.3 uM concentration; assay type: functional
# Homo sapiens [46] = organism: Homo sapiens; experiment: Anti-proliferative activity on normal human dermal fibroblasts (NHDF) induced by fetal bovine serum (FBS) at 0.1 uM concentration; assay type: functional
# Homo sapiens [47] = organism: Homo sapiens; experiment: Anti-proliferative activity on normal human dermal fibroblasts (NHDF) induced by fetal bovine serum (FBS) at 1 uM concentration; assay type: functional
# HUVEC [48] = experiment: Anti-proliferative effect on human umbilical vein endothelial cells (HUVEC) induced by fetal bovine serum (FBS) at 0.3 (uM) concentration; assay type: functional
smiles,measurement,setting,value
COc1ccc2c(c1)c(CC(=O)O)c(C)n2C(=O)c1ccc(Cl)cc1 [INDOMETHACIN],Inhibition,Mus musculus [1],75%
same,inhibition in vivo at 1 mg/kg/day,Mus musculus [2],22.2%
CCN(CC)c1nc(-c2cc(OC)c(OC)c(OC)c2)cc(-c2cc(OC)c(OC)cc2OC)n1,IC50,HUVEC [3],561 nM
same,IC50,HUVEC [4],148 nM
same,Activity,HUVEC [5],1861.3 c.p.m.
same,Activity,HUVEC [6],2969.9 c.p.m.
same,Activity,HUVEC [7],595.9 c.p.m.
same,Activity,HUVEC [8],437 c.p.m.
same,Activity,HUVEC [9],154.2 c.p.m.
same,Activity,HUVEC [10],122.8 c.p.m.
same,Activity,HUVEC [11],1263.7 c.p.m.
same,Activity,HUVEC [12],2077.3 c.p.m.
same,Activity,HUVEC [13],448 c.p.m.
same,Activity,HUVEC [14],2810.3 c.p.m.
same,Activity,HUVEC [15],1634.5 c.p.m.
same,inhibition at 0.1 µM,HUVEC [15],41.8%
same,Activity,HUVEC [16],994.2 c.p.m.
same,Activity,HUVEC [17],359 c.p.m.
same,IC50,HUVEC [18],199 nM
same,IC50,HUVEC [19],398 nM
same,Inhibition,HUVEC [20],33.6%
same,Inhibition,HUVEC [21],30.7%
same,Inhibition,HUVEC [22],70.3%
same,Inhibition,HUVEC [23],64.6%
same,Inhibition,HUVEC [24],87.2%
same,Inhibition,HUVEC [25],26.7%
same,inhibition at 1 µM,HUVEC [26],79.4%
same,Inhibition,HUVEC [27],10.4%
same,Inhibition,HUVEC [28],39.2%
same,Inhibition,HUVEC [29],78.4%
same,Activity,HUVEC [30],9998.4 c.p.m.
same,Activity,HUVEC [31],6638.9 c.p.m.
same,Activity,HUVEC [32],6927.6 c.p.m.
same,Activity,[33],15784.2 c.p.m.
same,Activity,[34],13366.5 c.p.m.
same,Activity,[35],18896 c.p.m.
same,Activity,[36],18961.2 c.p.m.
same,Inhibition,[37],-0.3%
same,Inhibition,[38],16.5%
same,Inhibition,[39],29.3%
same,inhibition in vivo at 30 mg/kg/day,Mus musculus [40],32.4%
same,Activity,Homo sapiens [41],1867.1 c.p.m.
same,Activity,Homo sapiens [42],1907.7 c.p.m.
same,Activity,Homo sapiens [43],2209.9 c.p.m.
same,Activity,Homo sapiens [44],2133.2 c.p.m.
same,inhibition at 0.3 µM,Homo sapiens [45],-18.4%
same,inhibition at 0.1 µM,Homo sapiens [46],-2.2%
same,inhibition at 1 µM,Homo sapiens [47],-14.3%
same,Inhibition,HUVEC [48],74.1%

# From ChEMBL document CHEMBL1135070, “Synthesis of a magnosalin derivative, 4-(3,4,5-trimethoxyphenyl)-6-(2,4,5-trimethoxyphenyl)-2-diethylaminopyrimidine, and the anti-angiogenic and anti-rheumatic effect on mice by oral administration” (Bioorg Med Chem Lett, 2002)
